# Reference: ChEMBL document CHEMBL1155993, “5-(2-Pyrimidinyl)-imidazo[1,2-a]pyridines are antibacterial agents targeting the ATPase domains of DNA gyrase and topoisomerase IV” (Bioorg Med Chem Lett, 2009)
# Assays:
# Streptococcus pneumoniae [1] = test: Antibacterial activity against fluoroquinolone resistant Streptococcus pneumoniae SP-3765 by NCCLS method; format: functional
# Staphylococcus aureus [2] = test: Antibacterial activity against Staphylococcus aureus UC76 by NCCLS method; format: functional, organism-based; conditions: read-out: MIC
# ParE = molecular target: T1, ParE (Streptococcus pneumoniae, UniProt Q7X1P7); test: Inhibition of Streptococcus pneumoniae SP-3 parE after 30 mins
# T1 sequence (Q7X1P7 whole entry): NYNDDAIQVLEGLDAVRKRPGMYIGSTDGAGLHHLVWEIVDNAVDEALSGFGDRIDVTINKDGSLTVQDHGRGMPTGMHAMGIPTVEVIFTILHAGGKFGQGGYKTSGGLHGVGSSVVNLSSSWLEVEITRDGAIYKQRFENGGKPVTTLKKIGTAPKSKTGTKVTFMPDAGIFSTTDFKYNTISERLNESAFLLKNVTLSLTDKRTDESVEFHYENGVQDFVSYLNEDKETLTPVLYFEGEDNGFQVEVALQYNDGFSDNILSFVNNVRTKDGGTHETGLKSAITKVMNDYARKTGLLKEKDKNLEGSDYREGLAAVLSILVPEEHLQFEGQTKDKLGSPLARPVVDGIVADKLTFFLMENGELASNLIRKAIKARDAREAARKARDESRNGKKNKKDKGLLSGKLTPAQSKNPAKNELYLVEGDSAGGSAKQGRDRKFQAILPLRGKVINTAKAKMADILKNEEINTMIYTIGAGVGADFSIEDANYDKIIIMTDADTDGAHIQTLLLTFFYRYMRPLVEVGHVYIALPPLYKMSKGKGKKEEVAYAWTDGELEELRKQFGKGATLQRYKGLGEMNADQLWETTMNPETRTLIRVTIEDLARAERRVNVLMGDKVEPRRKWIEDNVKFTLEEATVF
# DNA gyrase subunit B = DNA gyrase subunit B (Streptococcus pneumoniae serotype 4 (strain ATCC BAA-334 / TIGR4), UniProt P0A4L9); test: Inhibition of Streptococcus pneumoniae SP-3 gyrB by enzyme coupled phosphate assay
# Streptococcus pneumoniae [3] = test: Antibacterial activity against Streptococcus pneumoniae SP-3 by NCCLS method; format: functional
# Streptococcus pyogenes = test: Antibacterial activity against Streptococcus pyogenes SP1-1 by NCCLS method; format: functional
# Staphylococcus aureus [4] = test: Antibacterial activity against methicillin resistant Staphylococcus aureus SA-1417 by NCCLS method; format: functional
# DNA gyrase subunit B, sequence (P0A4L9 whole entry): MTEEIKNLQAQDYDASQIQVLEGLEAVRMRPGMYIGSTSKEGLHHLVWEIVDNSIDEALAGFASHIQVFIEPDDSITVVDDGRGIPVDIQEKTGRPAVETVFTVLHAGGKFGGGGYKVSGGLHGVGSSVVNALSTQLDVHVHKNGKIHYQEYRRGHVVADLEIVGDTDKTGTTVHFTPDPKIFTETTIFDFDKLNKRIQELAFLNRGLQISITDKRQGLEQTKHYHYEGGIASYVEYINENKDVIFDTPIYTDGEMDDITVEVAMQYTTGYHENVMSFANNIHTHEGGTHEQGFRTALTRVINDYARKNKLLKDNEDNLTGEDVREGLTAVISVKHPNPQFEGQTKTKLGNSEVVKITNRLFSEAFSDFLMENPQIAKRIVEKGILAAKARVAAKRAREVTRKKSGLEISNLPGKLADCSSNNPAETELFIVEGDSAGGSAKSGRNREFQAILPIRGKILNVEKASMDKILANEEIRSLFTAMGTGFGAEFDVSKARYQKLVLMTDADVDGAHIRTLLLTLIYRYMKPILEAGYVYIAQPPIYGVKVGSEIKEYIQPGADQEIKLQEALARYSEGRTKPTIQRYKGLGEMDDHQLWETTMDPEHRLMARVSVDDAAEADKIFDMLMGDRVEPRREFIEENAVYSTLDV
SMILES,MIC (Streptococcus pneumoniae [1]) [µg/mL],MIC (Staphylococcus aureus [2]) [µg/mL],IC50 (ParE) [µM],IC50 (DNA gyrase subunit B) [µM],MIC (Streptococcus pneumoniae [3]) [µg/mL],MIC (Streptococcus pyogenes) [µg/mL],MIC (Staphylococcus aureus [4]) [µg/mL]
CCOC(=O)Nc1cn2c(-c3nccc(C)n3)cc(-c3cnc(N(C)C)nc3)cc2n1,0.125,64,6.22,1.38,0.5,0.25,–
CCNC(=O)Nc1cn2c(-c3ncc(Cl)cn3)cc(-c3cccnc3)cc2n1,0.03,0.25,0.419,0.149,0.06,0.125,0.25
CCNC(=O)Nc1cn2c(-c3ncc(C)cn3)cc(-c3cnc(N(C)C)nc3)cc2n1,0.125,1,1.38,0.524,0.25,0.5,4
CCNC(=O)Nc1cn2c(-c3ncc(C)cn3)cc(-c3ccn(CC)c(=O)c3)cc2n1,0.125,0.25,0.624,0.051,0.06,1,0.5
CCNC(=O)Nc1cn2c(-c3nccc(C)n3)cc(-c3cnc(N(C)C)nc3)cc2n1,0.125,0.5,0.424,0.113,0.25,0.25,–
CCNC(=O)Nc1cn2c(-c3ncc(C)cn3)cc(-c3ccn(C)c(=O)c3)cc2n1,0.06,0.5,–,–,0.06,0.125,–
CCNC(=O)Nc1cn2c(-c3nc(C(F)(F)F)cc(C(F)(F)F)n3)cc(-c3cccnc3)cc2n1,0.125,2,0.745,0.242,0.25,1,4
CCC(=O)Nc1cn2c(-c3ncc(C)cn3)cc(-c3cccnc3)cc2n1,16,64,5,0.255,16,16,> 64
CCNC(=O)Nc1cn2c(-c3nc(C)cc(C(F)(F)F)n3)cc(-c3cccnc3)cc2n1,0.125,0.5,0.546,0.216,0.25,0.5,1
CCNC(=O)Nc1cn2c(-c3ncc(C(F)(F)F)cn3)cc(-c3cccnc3)cc2n1,0.25,1,0.367,0.163,0.5,1,1
CCNC(=O)Nc1cn2c(-c3ncc(C)cn3)cc(-c3ccc(C)nc3)cc2n1,0.25,0.5,0.373,0.096,0.5,0.25,1
CCNC(=O)Nc1cn2c(-c3ncc(C)cn3)cc(-c3ccn(CCF)c(=O)c3)cc2n1,0.5,0.5,10,0.376,0.125,0.5,1
CCNC(=O)Nc1cn2c(-c3ncc(C)cn3)cc(-c3ccc(OC)nc3)cc2n1,0.125,0.5,0.147,0.117,0.25,0.5,2
CCNC(=O)Nc1cn2c(-c3ncc(C)cn3)cc(-c3ccn(CC(=O)O)c(=O)c3)cc2n1,64,64,2.14,0.098,64,64,32
CCNC(=O)Nc1cn2c(-c3ncc(C(C)C)cn3)cc(-c3cccnc3)cc2n1,0.25,1,1.38,1.91,0.25,0.5,–
CCNC(=O)Nc1cn2c(-c3ncc(CC)cn3)cc(-c3cccnc3)cc2n1,0.06,0.25,0.265,0.353,0.06,0.125,1
